Counter-ions that a name gives are not always drawn. Like-named read-outs stand apart in the source and are kept apart here.
Columns and labels:
Type in all cases: biochemical
[1] = biological target: T1, human JAK1 (a.a. 837-1142) (Homo sapiens, UniProt P23458); experiment: In vitro JAK kinase assay (HTRF, phosphorylation of a biotinylated peptide), JAK1; conditions: read-out: JAK1 IC50
T1 construct: human JAK1 (a.a. 837-1142); His tag (N); made in house; host or cells: insect cells (baculovirus)
T1 sequence (P23458 849-1154): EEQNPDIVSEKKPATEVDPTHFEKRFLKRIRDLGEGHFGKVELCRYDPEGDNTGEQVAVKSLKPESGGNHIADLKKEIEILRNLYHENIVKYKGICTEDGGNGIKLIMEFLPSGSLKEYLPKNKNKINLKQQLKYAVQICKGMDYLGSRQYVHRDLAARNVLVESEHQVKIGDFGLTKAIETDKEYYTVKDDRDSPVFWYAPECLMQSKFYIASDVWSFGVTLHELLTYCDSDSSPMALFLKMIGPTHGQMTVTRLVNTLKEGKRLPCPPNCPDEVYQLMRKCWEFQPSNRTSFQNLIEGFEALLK
Outline: (§1)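 Phosphorylation of a biotinylated peptide by the JAK kinase domain, detected by HTRF with Eu-Py20 and SA-APC. ATP was 90 μM for JAK1, 30 μM for JAK2 and 3 μM for JAK3. Reactions ran 1 h at room temperature and were stopped with EDTA, followed by 40 min antibody binding.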

[2] = biological target: T2, human JAK3 (a.a. 781-1124) (Homo sapiens, UniProt P52333); experiment: In vitro JAK kinase assay (HTRF, phosphorylation of a biotinylated peptide), JAK3
T2 construct: JAK3 (a.a. 781-1124); His tag (N); made in house; host or cells: insect cells (baculovirus)
T2 sequence (P52333 781-1124): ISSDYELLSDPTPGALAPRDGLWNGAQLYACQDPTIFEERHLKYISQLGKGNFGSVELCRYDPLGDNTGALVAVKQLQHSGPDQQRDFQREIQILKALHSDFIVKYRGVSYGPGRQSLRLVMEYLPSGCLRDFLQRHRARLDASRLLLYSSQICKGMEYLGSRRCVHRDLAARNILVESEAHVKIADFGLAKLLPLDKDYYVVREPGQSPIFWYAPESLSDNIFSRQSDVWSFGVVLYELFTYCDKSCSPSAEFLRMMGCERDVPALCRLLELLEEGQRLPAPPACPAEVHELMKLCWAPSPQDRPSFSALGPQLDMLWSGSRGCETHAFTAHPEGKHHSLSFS
Outline: as §1

TYK2 = TYK2 (Homo sapiens, UniProt P29597); experiment: TYK2 kinase inhibition (Table A1)
TYK2, sequence (P29597 whole entry): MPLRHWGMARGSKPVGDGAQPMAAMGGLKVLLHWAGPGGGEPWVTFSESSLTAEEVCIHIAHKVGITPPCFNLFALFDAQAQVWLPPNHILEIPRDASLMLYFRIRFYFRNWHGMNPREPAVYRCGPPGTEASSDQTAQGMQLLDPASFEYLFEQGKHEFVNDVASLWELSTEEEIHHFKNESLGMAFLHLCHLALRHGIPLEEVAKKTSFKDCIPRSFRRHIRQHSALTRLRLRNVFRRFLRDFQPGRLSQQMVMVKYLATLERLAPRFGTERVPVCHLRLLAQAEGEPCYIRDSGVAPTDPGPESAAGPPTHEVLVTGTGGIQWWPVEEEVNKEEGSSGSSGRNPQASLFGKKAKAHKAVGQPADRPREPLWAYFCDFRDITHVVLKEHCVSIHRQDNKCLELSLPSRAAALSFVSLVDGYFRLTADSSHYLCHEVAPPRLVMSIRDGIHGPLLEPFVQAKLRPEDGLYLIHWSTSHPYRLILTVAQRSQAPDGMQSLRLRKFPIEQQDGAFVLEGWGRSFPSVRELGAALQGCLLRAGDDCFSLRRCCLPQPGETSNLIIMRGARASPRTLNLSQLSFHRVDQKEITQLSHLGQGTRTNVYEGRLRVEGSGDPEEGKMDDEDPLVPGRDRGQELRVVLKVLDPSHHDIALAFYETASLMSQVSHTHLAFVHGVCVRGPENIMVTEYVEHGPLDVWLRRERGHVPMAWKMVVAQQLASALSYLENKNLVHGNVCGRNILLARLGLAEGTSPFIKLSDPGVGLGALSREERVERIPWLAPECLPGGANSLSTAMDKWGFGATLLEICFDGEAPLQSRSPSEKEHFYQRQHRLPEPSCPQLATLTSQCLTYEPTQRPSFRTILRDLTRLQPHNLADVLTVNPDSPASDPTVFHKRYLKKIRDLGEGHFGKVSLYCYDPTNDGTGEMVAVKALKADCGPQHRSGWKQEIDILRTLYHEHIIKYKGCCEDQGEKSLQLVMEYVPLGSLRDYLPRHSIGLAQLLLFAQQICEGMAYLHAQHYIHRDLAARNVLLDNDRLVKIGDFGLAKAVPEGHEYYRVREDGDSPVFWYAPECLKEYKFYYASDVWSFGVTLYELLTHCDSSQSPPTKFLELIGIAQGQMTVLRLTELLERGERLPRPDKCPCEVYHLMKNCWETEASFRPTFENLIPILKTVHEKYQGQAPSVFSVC

[3] = biological target: T3, Recombinant Human Anaplastic Lymphoma Kinase (Homo sapiens, UniProt Q9UM73); experiment: ALK HTRF kinase assay
T3 construct: purchased Invitrogen, Carlsbad, Calif
T3 sequence (Q9UM73 19-1620): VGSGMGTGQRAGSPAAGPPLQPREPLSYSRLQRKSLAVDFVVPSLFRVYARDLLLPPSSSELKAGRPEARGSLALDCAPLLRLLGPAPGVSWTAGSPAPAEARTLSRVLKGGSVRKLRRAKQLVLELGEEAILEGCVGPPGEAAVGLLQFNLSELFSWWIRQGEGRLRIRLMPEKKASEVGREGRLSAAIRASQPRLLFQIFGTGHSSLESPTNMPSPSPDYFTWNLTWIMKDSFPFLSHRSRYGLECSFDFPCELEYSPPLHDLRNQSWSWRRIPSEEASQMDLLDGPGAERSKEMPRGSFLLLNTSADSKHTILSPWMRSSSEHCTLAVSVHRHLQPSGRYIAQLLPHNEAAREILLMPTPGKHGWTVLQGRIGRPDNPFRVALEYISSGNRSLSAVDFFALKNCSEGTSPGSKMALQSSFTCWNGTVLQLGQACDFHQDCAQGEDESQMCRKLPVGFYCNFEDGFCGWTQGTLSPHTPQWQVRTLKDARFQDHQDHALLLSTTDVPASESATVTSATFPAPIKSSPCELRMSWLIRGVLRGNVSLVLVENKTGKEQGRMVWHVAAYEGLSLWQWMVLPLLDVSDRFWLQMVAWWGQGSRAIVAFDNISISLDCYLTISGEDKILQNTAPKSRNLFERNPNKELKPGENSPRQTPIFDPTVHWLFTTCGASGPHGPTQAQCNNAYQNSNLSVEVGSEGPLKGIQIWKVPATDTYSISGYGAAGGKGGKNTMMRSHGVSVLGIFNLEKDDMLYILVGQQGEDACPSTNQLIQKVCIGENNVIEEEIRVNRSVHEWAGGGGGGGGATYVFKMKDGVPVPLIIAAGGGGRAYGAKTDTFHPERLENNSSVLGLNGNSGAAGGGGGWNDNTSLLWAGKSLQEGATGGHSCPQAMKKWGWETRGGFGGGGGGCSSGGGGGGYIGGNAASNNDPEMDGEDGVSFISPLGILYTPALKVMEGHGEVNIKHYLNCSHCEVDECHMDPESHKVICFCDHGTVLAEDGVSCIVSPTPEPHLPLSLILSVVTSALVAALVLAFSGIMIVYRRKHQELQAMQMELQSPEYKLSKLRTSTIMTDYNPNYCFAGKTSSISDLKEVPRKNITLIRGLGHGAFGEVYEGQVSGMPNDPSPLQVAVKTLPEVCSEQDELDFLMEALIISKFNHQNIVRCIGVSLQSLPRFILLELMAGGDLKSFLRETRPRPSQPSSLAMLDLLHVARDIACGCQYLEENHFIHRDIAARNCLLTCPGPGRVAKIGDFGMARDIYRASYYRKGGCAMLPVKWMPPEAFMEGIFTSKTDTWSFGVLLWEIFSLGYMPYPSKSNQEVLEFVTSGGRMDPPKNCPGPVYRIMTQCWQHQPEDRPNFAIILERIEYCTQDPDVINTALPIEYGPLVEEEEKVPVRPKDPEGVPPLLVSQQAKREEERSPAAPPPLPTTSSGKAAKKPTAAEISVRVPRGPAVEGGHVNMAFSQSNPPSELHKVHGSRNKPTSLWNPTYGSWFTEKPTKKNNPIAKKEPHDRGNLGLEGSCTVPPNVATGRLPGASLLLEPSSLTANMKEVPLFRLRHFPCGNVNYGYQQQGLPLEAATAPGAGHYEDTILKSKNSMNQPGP
Outline: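 Recombinant human ALK phosphorylated a biotinylated synthetic peptide. Phosphotyrosine was detected by TR-FRET between a Eu-labelled anti-phosphotyrosine antibody and streptavidin-allophycocyanin. IC50 values came from fitting signal against inhibitor concentration to a four-parameter logistic equation with variable Hill slope.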

[4] = biological target: T4, human JAK2 (a.a. 828-1132) (Homo sapiens, UniProt O60674); experiment: In vitro JAK kinase assay (HTRF, phosphorylation of a biotinylated peptide), JAK2
T4 construct: JAK2 (a.a. 828-1132); His tag (N); made in house; host or cells: insect cells (baculovirus)
T4 sequence (O60674 828-1132): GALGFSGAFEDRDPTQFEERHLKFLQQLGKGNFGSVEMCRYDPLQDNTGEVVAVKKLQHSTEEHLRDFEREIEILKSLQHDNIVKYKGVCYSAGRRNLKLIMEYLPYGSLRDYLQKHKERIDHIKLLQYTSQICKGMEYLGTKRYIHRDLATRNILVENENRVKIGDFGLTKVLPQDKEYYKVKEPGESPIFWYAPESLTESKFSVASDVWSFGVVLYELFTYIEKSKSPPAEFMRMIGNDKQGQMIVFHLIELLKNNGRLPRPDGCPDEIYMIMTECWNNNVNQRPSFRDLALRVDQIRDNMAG
Outline: as §1

[5] = percentage inhibition of the example compound at a concentration of 500 nM or 1 mM (not specified which)
[6] = method AA1 (90 μM ATP) or AA2 (1000 μM ATP), not stated per value
[7] = method AA1 (3 μM ATP) or AA2 (1000 μM ATP), not stated per value
[8] = compound at 500 nM or 1 mM, 90 μM ATP
[9] = method AA1 (30 μM ATP) or AA2 (1000 μM ATP), not stated per value
[10] = Table B1, cells without percent sign

## O=C(Nc1ccc2cc1CCc1cncc(c1)Nc1ncc(Cl)c(n1)N2)N1CCN(c2cccc(Cl)c2)CC1 [Example B306, N-[6-Chloro-2,4,8,18,22-pentaazatetracyclo[14.3.1.1(3,7).1(9,13)]docosa-1(20),3(22),4,6,9(21),10,12,16,18-nonaen-12-yl]-4-(3-chlorophenyl)piperazine-1-carboxamide tris(trifluoroacetate)]
[1]; Table B1
  IC50: 27 nM
[2]; Table B1
  IC50: > 400 nM
TYK2; Table B1
  IC50: 43 nM
[3]; [5]
  ALK % of inhibition at a concentration of 500 nM or 1 mM: 72%
[4]; Table B1
  IC50: 265 nM

## CC(=O)N1CCN(C(=O)COc2ccc3cc2CCc2cccc(c2)Nc2ncc(Cl)c(n2)N3)CC1 [Example A20, 12-[2-(4-Acetylpiperazin-1-yl)-2-oxoethoxy]-6-chloro-2,4,8,22-tetraazatetracyclo[14.3.1.1(3,7).1(9,13)]docosa-1(20),3(22),4,6,9(21),10,12,16,18-nonaene trifluoroacetate]
[1]; [6]
  IC50: 12 nM
[2]; [7]
  IC50: 78 nM
TYK2
  IC50: 27 nM
[3]; [8]
  ALK % of inhibition at a concentration of 500 nM or 1 mM: 17%
[4]; [9]
  IC50: 8.2 nM

## O=C(CC1CCN(C(=O)Nc2ccc(F)cc2)CC1)Nc1ccc2cc1CCc1cncc(c1)Nc1ncc(Cl)c(n1)N2 [Example A148, 4-(2-{[6-Chloro-2,4,8,18,22-pentaazatetracyclo[14.3.1.1(3,7).1(9,13)]docosa-1(20),3(22),4,6,9(21),10,12,16,18-nonaen-12-yl]amino}-2-oxoethyl)-N-(4-fluorophenyl)piperidine-1-carboxamide bis(trifluoroacetate)]
[1]; [6]
  IC50: 0.2 nM
[2]; [7]
  IC50: > 100 nM
TYK2
  IC50: 3.9 nM
[3]; [8]
  ALK % of inhibition at a concentration of 500 nM or 1 mM: 42%
[4]; [9]
  IC50: 1.5 nM

## O=C(Nc1ccccc1)N1CCN(c2ccc(-c3cc4cc(c3)Nc3ncc(Cl)c(n3)Nc3cccc(c3)OCC4)cn2)CC1 [Example D42, 4-{5-[6-Chloro-14-oxa-2,4,8,23-tetraazatetracyclo[15.3.1.1(3,7).1(9,13)]tricosa-1(21),3(23),4,6,9(22),10,12,17,19-nonaen-19-yl]pyridin-2-yl}-N-phenylpiperazine-1-carboxamide bis(trifluoroacetate)]
[1]; Table D1
  IC50: 2.2 nM
[2]; Table D1
  IC50: 20 nM
TYK2; Table D1
  IC50: 4 nM
[3]; Table D1, 90 μM ATP
  IC50: 730 nM
[4]; Table D1
  IC50: 2.1 nM

## CCS(=O)(=O)N1CCC(CC(=O)Nc2ccc3cc2CCc2cncc(c2)Nc2ncc(Cl)c(n2)N3)CC1 [Example A98, N-[6-Chloro-2,4,8,18,22-pentaazatetracyclo[14.3.1.1(3,7).1(9,13)]docosa-1(20),3(22),4,6,9(21),10,12,16,18-nonaen-12-yl]-2-[1-(ethylsulfonyl)piperidin-4-yl]acetamide bis(trifluoroacetate)]
[1]; [6]
  IC50: 1 nM
[2]; [7]
  IC50: 55 nM
TYK2
  IC50: 5.3 nM
[3]; [8]
  ALK % of inhibition at a concentration of 500 nM or 1 mM: 34%
[4]; [9]
  IC50: 2.7 nM

## COc1ccc(C(=O)Nc2ccc3cc2CCc2cccc(c2)Nc2ncc(Cl)c(n2)N3)cc1 [Example B67, N-[6-Chloro-2,4,8,22-tetraazatetracyclo[14.3.1.1(3,7).1(9,13)]docosa-1(20), 3(22),4,6,9(21),10,12,16,18-nonaen-12-yl]-4-methoxybenzamide trifluoroacetate]
[1]; Table B1
  IC50: 3.2 nM
[2]; Table B1
  IC50: 15 nM
TYK2; Table B1
  IC50: 6 nM
[3]; [10]
  IC50: 220 nM
[4]; Table B1
  IC50: 1.9 nM

## O=C(Nc1ccc2cc1CCc1cccc(c1)Nc1ncc(Cl)c(n1)N2)C1CC1 [Example B27, N-[6-Chloro-2,4,8,22-tetraazatetracyclo[14.3.1.1(3,7).1(9,13)]docosa-1(20), 3(22),4,6,9(21),10,12,16,18-nonaen-12-yl]cyclopropanecarboxamide trifluoroacetate]
[1]; Table B1
  IC50: 5.2 nM
[2]; Table B1
  IC50: 8.5 nM
TYK2; Table B1
  IC50: 15 nM
[3]; [10]
  IC50: 880 nM
[4]; Table B1
  IC50: 3.7 nM

## Cc1cc(C(=O)N2CCCC(C(=O)Nc3ccc4cc3CCc3cccc(c3)Nc3ncc(Cl)c(n3)N4)C2)no1 (centres unmarked) [Example A121, N-[6-Chloro-2,4,8,22-tetraazatetracyclo[14.3.1.1(3,7).1(9,13)]docosa-1(20),3(22),4,6,9(21),10,12,16,18-nonaen-12-yl]-1-[(5-methylisoxazol-3-yl)carbonyl]piperidine-3-carboxamide trifluoroacetate]
[1]; [6]
  IC50: 14 nM
[2]; [7]
  IC50: 11 nM
TYK2
  IC50: 14 nM
[3]; [8]
  ALK % of inhibition at a concentration of 500 nM or 1 mM: 41%
[4]; [9]
  IC50: 4.2 nM

## Cc1ccc(N2CCC(CC(=O)Nc3ccc4cc3CCc3cncc(c3)Nc3ncc(Cl)c(n3)N4)CC2)nn1 [Example A173, N-[6-Chloro-2,4,8,18,22-pentaazatetracyclo[14.3.1.1(3,7).1(9,13)]docosa-1(20),3(22),4,6,9(21),10,12,16,18-nonaen-12-yl]-2-[1-(6-methylpyridazin-3-yl)piperidin-4-yl]acetamide tris(trifluoroacetate)]
[1]; [6]
  IC50: 8 nM
[2]; [7]
  IC50: > 1000 nM
TYK2
  IC50: 105 nM
[3]; [8]
  ALK % of inhibition at a concentration of 500 nM or 1 mM: 40%
[4]; [9]
  IC50: 89 nM

## Cc1cc(C(=O)N2CCC(CN(C)Cc3ccc4cc3CCc3cncc(c3)Nc3ncc(Cl)c(n3)N4)CC2)no1 [Example B344, 1-[6-Chloro-2,4,8,18,22-pentaazatetracyclo[14.3.1.1(3,7).1(9,13)]docosa-1(20),3(22),4,6,9(21),10,12,16,18-nonaen-12-yl]-N-methyl-N-({1-[(5-methylisoxazol-3-yl)carbonyl]piperidin-4-yl}methyl)methanamine tris(trifluoroacetate)]
[1]; Table B1
  IC50: 14 nM
[2]; Table B1
  IC50: > 400 nM
TYK2; Table B1
  IC50: 276 nM
[3]; [5]
  ALK % of inhibition at a concentration of 500 nM or 1 mM: 43%
[4]; Table B1
  IC50: 90 nM

## O=C(CC1CCN(c2ccccn2)CC1)Nc1ccc2cc1CCc1cncc(c1)Nc1ncc(Cl)c(n1)N2 [Example A170, N-[6-Chloro-2,4,8,18,22-pentaazatetracyclo[14.3.1.1(3,7).1(9,13)]docosa-1(20),3(22),4,6,9(21),10,12,16,18-nonaen-12-yl]-2-(1-pyridin-2-ylpiperidin-4-yl)acetamide tris(trifluoroacetate)]
[1]; [6]
  IC50: 7.8 nM
[2]; [7]
  IC50: > 1000 nM
TYK2
  IC50: 250 nM
[3]; [8]
  ALK % of inhibition at a concentration of 500 nM or 1 mM: 37%
[4]; [9]
  IC50: 165 nM

## CSc1ccccc1NC(=O)N1CCC(C(=O)Nc2ccc3cc2CCc2cccc(c2)Nc2ncc(Cl)c(n2)N3)CC1 [Example A39, N(4)-[6-Chloro-2,4,8,22-tetraazatetracyclo[14.3.1.1(3,7).1(9,13)]docosa-1(20),3(22),4,6,9(21),10,12,16,18-nonaen-12-yl]-N(1)-[2-(methylthio)phenyl]piperidine-1,4-dicarboxamide trifluoroacetate]
[1]; [6]
  IC50: 19 nM
[2]; [7]
  IC50: 66 nM
TYK2
  IC50: 77 nM
[3]; [8]
  ALK % of inhibition at a concentration of 500 nM or 1 mM: 39%
[4]; [9]
  IC50: 36 nM

## COc1cccc(C(=O)Nc2ccc3cc2CCc2cccc(c2)Nc2ncc(Cl)c(n2)N3)c1 [Example B66, N-[6-Chloro-2,4,8,22-tetraazatetracyclo[14.3.1.1(3,7).1(9,13)]docosa-1(20), 3(22),4,6,9(21),10,12,16,18-nonaen-12-yl]-3-methoxybenzamide trifluoroacetate]
[1]; Table B1
  IC50: 3 nM
[2]; Table B1
  IC50: 13 nM
TYK2; Table B1
  IC50: 4.5 nM
[3]; [10]
  IC50: 310 nM
[4]; Table B1
  IC50: 1.6 nM

## O=C(Nc1ccc2cc1CCc1cccc(c1)Nc1ncc(Cl)c(n1)N2)[C@@H]1CCNC1 [Example A45, (3R)—N-[6-chloro-2,4,8,22-tetraazatetracyclo[14.3.1.1(3,7).1(9,13)]docosa-1(20),3(22),4,6,9(21),10,12,16,18-nonaen-12-yl]pyrrolidine-3-carboxamide bis(trifluoroacetate)]
[1]; [6]
  IC50: 9.6 nM
[2]; [7]
  IC50: 31 nM
TYK2
  IC50: 39 nM
[3]; [8]
  ALK % of inhibition at a concentration of 500 nM or 1 mM: 29%
[4]; [9]
  IC50: 20 nM

## O=S(=O)(c1ccc(Cl)cc1)c1ccc(CN2CCN(Cc3cc4cc(c3)Nc3nc(ncc3Cl)Nc3cccc(c3)CC4)CC2)cc1 [Example B195, 6-Chloro-11-[(4-{4-[(4-chlorophenyl)sulfonyl]benzyl}piperazin-1-yl)methyl]-2,4,8,22-tetraazatetracyclo[14.3.1.1(3,7).1(9,13)]docosa-1(20),3(22),4,6,9(21),10,12,16,18-nonaene tris(trifluoroacetate)]
[1]; Table B1
  IC50: > 1000 nM
[2]; Table B1
  IC50: > 1000 nM
TYK2; Table B1
  IC50: > 1000 nM
[3]; [10]
  IC50: > 10000 nM
[4]; Table B1
  IC50: 91 nM

## O=C(CC1CCN(c2ncco2)CC1)Nc1ccc2cc1CCc1cncc(c1)Nc1ncc(Cl)c(n1)N2 [Example A246, N-[6-Chloro-2,4,8,18,22-pentaazatetracyclo[14.3.1.1(3,7).1(9,13)]docosa-1(20),3(22),4,6,9(21),10,12,16,18-nonaen-12-yl]-2-[1-(1,3-oxazol-2-yl)piperidin-4-yl]acetamide tris(trifluoroacetate)]
[1]; [6]
  IC50: 15 nM
[2]; [7]
  IC50: > 200 nM
TYK2
  IC50: > 200 nM
[3]; [8]
  ALK % of inhibition at a concentration of 500 nM or 1 mM: 39%
[4]; [9]
  IC50: 120 nM

Source: US8871753B2, “Macrocyclic compounds and their use as kinase inhibitors” (Incyte Corporation, priority 2008, dated 2014)
